Experimental data: patent US20170280720A1, “ARGININE […] INHIBITORS AND USES THEREOF” (EPIZYME, INC., priority 2014, published 2017)

Key:
[1] = system: asymmetric di-methyl PABP1 in RKO cells; assay: In Cell Western (ICW) for asymmetric di-methyl PABP1 and DNA content in RKO cells; format: cell-based; conditions: Homo sapiens, RKO, In Cell Western
Summary of the method: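 RKO cells treated with compound for 48 h at 37 °C, then fixed, methanol-permeabilized and stained for asymmetric di-methyl PABP1 (800 nm) with DRAQ5 DNA stain (700 nm). Signal ratio normalized to DMSO and 20 μM reference-compound controls. IC50 from nine 3-fold dilutions in triplicate.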

PRMT5 = PRMT5 (Homo sapiens, UniProt O14744); assay: PRMT5 IC50 (Table 2; no method described); format: biochemical; conditions: read-out: PRMT5_ IC50
Chain of PRMT5 (O14744 whole entry, species assumed): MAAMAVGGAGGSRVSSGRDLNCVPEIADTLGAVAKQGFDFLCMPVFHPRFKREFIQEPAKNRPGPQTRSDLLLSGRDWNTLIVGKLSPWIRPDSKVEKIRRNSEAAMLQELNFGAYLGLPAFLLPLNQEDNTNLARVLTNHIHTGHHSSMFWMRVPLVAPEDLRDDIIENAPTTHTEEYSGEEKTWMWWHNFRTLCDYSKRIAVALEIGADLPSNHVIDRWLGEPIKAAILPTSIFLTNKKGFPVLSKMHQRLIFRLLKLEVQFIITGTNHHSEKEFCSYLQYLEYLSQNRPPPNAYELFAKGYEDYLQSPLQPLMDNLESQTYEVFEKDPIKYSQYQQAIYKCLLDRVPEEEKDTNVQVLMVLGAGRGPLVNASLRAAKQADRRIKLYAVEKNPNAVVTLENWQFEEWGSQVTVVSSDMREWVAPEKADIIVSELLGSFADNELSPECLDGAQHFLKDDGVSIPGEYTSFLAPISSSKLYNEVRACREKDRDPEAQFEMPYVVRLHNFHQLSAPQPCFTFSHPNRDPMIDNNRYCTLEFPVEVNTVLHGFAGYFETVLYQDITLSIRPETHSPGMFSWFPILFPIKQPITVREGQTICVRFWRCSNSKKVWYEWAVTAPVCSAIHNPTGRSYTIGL
Chain of PRMT5 (Q9BQA1 whole entry partner, species assumed): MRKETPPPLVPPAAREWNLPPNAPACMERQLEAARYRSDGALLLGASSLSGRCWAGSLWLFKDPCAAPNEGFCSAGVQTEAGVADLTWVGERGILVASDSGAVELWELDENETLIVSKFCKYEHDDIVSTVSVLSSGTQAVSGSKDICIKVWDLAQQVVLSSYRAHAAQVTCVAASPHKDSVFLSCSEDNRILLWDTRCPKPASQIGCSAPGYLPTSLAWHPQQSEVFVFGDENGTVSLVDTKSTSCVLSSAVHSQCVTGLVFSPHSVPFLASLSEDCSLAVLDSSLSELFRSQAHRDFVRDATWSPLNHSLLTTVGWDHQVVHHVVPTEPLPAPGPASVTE

Row | Structure (SMILES) | IC50 [1] [µM] | IC50 (PRMT5) [µM]
1 | CNCCN(C)Cc1cccc(-c2cc(NC3CCOCC3)c3cnn(C(C)C)c3n2)c1 [Compound 76] | 1.63 | 
2 | COc1cccc(Cn2cnc3ccc(-c4ccc(CN(C)CCN)cc4)cc32)c1 [Compound 8] |  | 16
3 | CCOc1cc(-c2cccc(CN(C)CCNC)c2)nc2c1cnn2C(C)C [Compound 53] | 3.47 | 
4 | CNCCN(C)Cc1cccc(-c2cc(C(=O)NCc3ccccn3)c3cnn(C(C)C)c3n2)c1 [Compound 98] | 1.6 | 
5 | Cc1c(C(=O)NCc2ccccc2)cc(-c2ccc(CN(C)CCN)cc2)c2cn[nH]c12 [Compound 7] |  | 22.5
6 | CNCCN(C)Cc1cccc(-c2cc(C#N)c3cnn(C(C)C)c3n2)c1 [Compound 74] | 20 | 
7 | COc1cccc(CCn2cnc3ccc(-c4ccc(CNCCN)cc4)cc32)c1 [Compound 94] |  | 0.0888
8 | CNCCN(C)Cc1cccc(-c2cc(N3CCCC(C#N)C3)c3cnn(C(C)C)c3n2)c1 (stereo not shown) [Compound 55] | 4.81 | 
9 | Cc1ccccc1Cn1cnc2ccc(-c3ccc(CNCCN)cc3)cc21 [Compound 82] |  | 0.236
10 | NCCNCc1ccc(-c2ccc3ncn(CC4CCCNC4)c3c2)cc1 (stereo not shown) [Compound 81] |  | 0.321
11 | CNCCN(C)Cc1cccc(-c2cc(C(=O)NC3CCOCC3)c3cnn(C4CC4)c3n2)c1 [Compound 87] | 2.17 | 
12 | CCNc1cc(-c2cccc(CN(C)CCNC)c2)nc2c1cnn2C(C)C [Compound 72] | 5.36 | 
13 | CNCCN(C)Cc1cccc(-c2nc(NCc3cnn(C)c3C)c3cnn(C4CC4)c3n2)c1 [Compound 57] | 20 | 
14 | CC(C)NC(=O)Nc1cc(-c2cccc(CN(C)CCN)c2)nc2c1cnn2C(C)C [Compound 86] | 3.46 | 
15 | CN(CCN)Cc1cccc(-c2nc(NCc3cn4ccsc4n3)c3cnn(C4CC4)c3n2)c1 [Compound 5] | 20 | 
16 | CNCCN(C)Cc1cccc(-c2cc(N(C)C3CC3)c3cnn(C(C)C)c3n2)c1 [Compound 95] | 6.8 | 200
17 | CN(CCN)Cc1cccc(-c2nc(NCc3ccncc3)c3cnn(C4CC4)c3n2)c1 [Compound 66] | 20 | 
18 | CNCCN(C)Cc1cccc(-c2cc(NC3COC3)c3cnn(C(C)C)c3n2)c1 [Compound 58] | 3.2 | 
19 | CNCCN(C)Cc1cccc(-c2cc(NC(=O)NC(C)C)c3cnn(C(C)C)c3n2)c1 [Compound 85] | 2.58 | 

Row | Structure (SMILES) | IC50 [1] [µM] | IC50 (PRMT5) [µM]
20 | COc1ccccc1Cn1cnc2ccc(-c3ccc(CNCCN)cc3)cc21 [Compound 80] |  | 0.161
21 | CNCCN(C)Cc1cccc(-c2cc(N3CCC(C#N)CC3)c3cnn(C(C)C)c3n2)c1 [Compound 93] | 1.65 | 
22 | CC(C)n1ncc2c(C(=O)NCc3ccccc3Cl)cc(-c3cccc(CN(C)CCN)c3)nc21 [Compound 54] | 20 | 
23 | CC(C)n1cc2c(Cl)cc(-c3cccc(CN(C)CCN)c3)nc2n1 [Compound 59] | 15.5 | 
24 | CC(C)n1ncc2c(N3CCOCC3)cc(-c3cccc(CN(C)CCN)c3)nc21 [Compound 61, N1-(3-(1-isopropyl-4-morpholino-1H-pyrazolo[3,4-b]pyridin-6-yl)benzyl)-N1-methylethane-1,2-diamine] | 5.66 | 
25 | CNCCN(C)Cc1cccc(-c2nc(NCc3cn4ccsc4n3)c3cnn(C4CC4)c3n2)c1 [Compound 6] | 0.39 | 
26 | Cc1ccc(Cn2cnc3ccc(-c4ccc(CNCCN)cc4)cc32)cc1 [Compound 97] |  | 0.0659
27 | CN(CCN)Cc1cccc(-c2nc(NC3CC3)c3cnn(C4CC4)c3n2)c1 [Compound 96] | 12.5 | 
28 | CNCCN(C)Cc1cccc(-c2ccc3cnn(C(C)C)c3n2)c1 [Compound 73] | 20 | 50
29 | CNCCN(C)Cc1cccc(-c2cc(-c3cnn(C)c3)c3cnn(C(C)C)c3n2)c1 [Compound 49, N1-(3-(1-isopropyl-4-(1-methyl-1H-pyrazol-4-yl)-1H-pyrazolo[3,4-b]pyridin-6-yl)benzyl)-N1,N2-dimethylethane-1,2-diamine] | 1.29 | 
30 | NCCNCc1ccc(-c2ccc3ncn(CC4CCNCC4)c3c2)cc1 [Compound 70] |  | 0.421
31 | CC(C)n1ncc2c(NC(=O)OCc3ccccc3)cc(-c3cccc(CN(C)CCN)c3)nc21 [Compound 84] | 13.3 | 27.7
32 | CNCCN(C)Cc1cccc(-c2nc(NCc3ccccn3)c3cnn(C4CC4)c3n2)c1 [Compound 9] | 20 | 
33 | CCOC(=O)c1cc(-c2cccc(CN(C)CCNC)c2)nc2c1cnn2C(C)C [Compound 78] | 13 | 
34 | CNCCN(C)Cc1cccc(-c2cc(C(=O)N3CCCCC3)c3cnn(C(C)C)c3n2)c1 [Compound 56] | 16.8 | 
35 | CNCCN(C)Cc1cccc(-c2cc(N3CCC3)c3cnn(C(C)C)c3n2)c1 [Compound 79] | 20 | 
36 | CNCCN(C)Cc1cccc(-c2cc(N3CCC(OC)CC3)c3cnn(C(C)C)c3n2)c1 [Compound 51] | 5.39 | 
37 | COC(=O)Nc1cc(-c2cccc(CN(C)CCN)c2)nc2c1cnn2C(C)C [Compound 71] | 11 | 

Further lines, results first:

Row | IC50 [1] [µM] | IC50 (PRMT5) [µM] | Structure (SMILES)
38 |  | 0.343 | COc1ccccc1-c1nc2ccc(-c3ccc(CNCCN)cc3)cc2[nH]1 [Compound 115]
39 |  | 50 | CNCCN(C)Cc1cccc(-c2ccc3cnn(C(C)C)c3c2)c1 [Compound 100]
40 | 10.9 |  | CNCCN(C)Cc1cccc(-c2cc(OC3CCOC3)c3cnn(C(C)C)c3n2)c1 (stereo not shown) [Compound 102]
41 | 20 |  | CNCCN(C)Cc1cccc(-c2nc(NC3CC3)c3cnn(C4CC4)c3n2)c1 [Compound 114]
42 | 11.9 |  | CCS(=O)(=O)Nc1cc(-c2cccc(CN(C)CCN)c2)nc2c1cnn2C(C)C [Compound 111]
43 | 1.53 |  | CNCCN(C)Cc1cccc(-c2cc(C(=O)NCc3cc(C)nn3C)c3cnn(C(C)C)c3n2)c1 [Compound 120]
44 | 2.62 |  | CC(C)n1ncc2c(NC(=O)N(C)C)cc(-c3cccc(CN(C)CCN)c3)nc21 [Compound 116]
45 | 4.78 |  | CNCCN(C)Cc1cccc(-c2cc(NC(=O)N(C)C)c3cnn(C(C)C)c3n2)c1 [Compound 123]
46 | 7.45 |  | CNCCN(C)Cc1cccc(-c2cc(NC)c3cnn(C(C)C)c3n2)c1 [Compound 121]
47 | 1.37 |  | CN(CCN)Cc1cccc(-c2nc(N(C)C3CCOCC3)c3cnn(C4CC4)c3n2)c1 [Compound 119]
48 | 10.3 |  | CNCCN(C)Cc1cccc(-c2cc(N(C)C)c3cnn(C(C)C)c3n2)c1 [Compound 103]
49 | 1.36 |  | CNCCN(C)Cc1cccc(-c2cc(C(=O)NCC3CCOCC3)c3cnn(C(C)C)c3n2)c1 [Compound 105]
50 | 6.31 |  | CC(C)n1ncc2c(NC3CCOCC3)cc(-c3cccc(CN(C)CCN)c3)nc21 [Compound 101]
51 | 11.8 |  | CC(C)n1ncc2c(NS(=O)(=O)N(C)C)cc(-c3cccc(CN(C)CCN)c3)nc21 [Compound 107]
52 | 17.8 |  | CNCCN(C)Cc1cccc(-c2cc(OC)c3cnn(C(C)C)c3n2)c1 [Compound 124]
53 |  | 0.1 | NCCNCc1ccc(-c2ccc3ncn(Cc4ccc(C(=O)N5CCCC5)cc4)c3c2)cc1 [Compound 104]
54 | 1.54 |  | CNCCN(C)Cc1cccc(-c2nc(N3CCOCC3)c3cnn(C(C)C)c3n2)c1 [Compound 99]
55 | 1.13 |  | CC(C)n1ncc2c(C(=O)NCC3CCOCC3)cc(-c3cccc(CN(C)CCN)c3)nc21 [Compound 108]
56 |  | 0.178 | Cc1cccc(-n2cnc3ccc(-c4ccc(CNCCN)cc4)cc32)c1 [Compound 106]
57 |  | 0.273 | COc1cccc(-n2cnc3ccc(-c4ccc(CNCCN)cc4)cc32)c1 [Compound 110]
58 | 10.7 |  | CNCCN(C)Cc1cccc(-c2nc(N(C)C3CCOCC3)c3cnn(C4CC4)c3n2)c1 [Compound 109, N1-(3-(1-cyclopropyl-4-(methyl(tetrahydro-2H-pyran-4-yl)amino)-1H-pyrazolo[3,4-d]pyrimidin-6-yl)benzyl)-N1,N2-dimethylethane-1,2-diamine]
